In PMC11845477, “Exploring the principles behind antibiotics with limited resistance” (Nature Communications, 2025):
Like-named read-outs stand apart in the source and are kept apart here. Where a SMILES comes first, the peptide text is derived from it. Bridges are numbered along the chain shown (N, C = ends). [ ]: non-standard residue; d: D form. The star is where a group is joined. X1 = NC[C@@H](CC(=O)*)c1cccc(Cl)c1; X2 = CC[C@H](C)CCCCC(=O)*; Dab = NCC[C@H](N)C(=O)O; Dap = NC[C@H](N)C(=O)O

Legend:
[1] = tested on: mutated genes in antibiotic-adapted lines; experiment: Whole genome sequencing and comparative mutational analysis of adapted lines; conditions: lines adapted in laboratory evolution
Excerpt: We focused on the resistance mechanisms of DT permeabilizers and ST permeabilizers (Fig. 5a), as these antibiotics commonly disintegrate the bacterial membrane, and therefore the resistance mechanisms may overlap.
Genes are categorized based on their cellular localization using PSORT (Protein Subcellular Localization Prediction Tool). They are further classified according to their involvement in specific metabolic or resistance pathways using the KEGG (Kyoto Encyclopedia of Genes and Genomes) and COG (Clusters of Orthologous Genes) databases.
To identify potential antibiotic resistance mutations, we selected 2 to 5 lines from the frequency-of-resistance (FoR) and adaptive laboratory evolution (ALE) experiments for whole genome sequencing. Resistant populations were grown overnight in antibiotic-free medium, and DNA was isolated using the GenElute Bacterial Genomic DNA Kit (Sigma), following the manufacturer’s instructions. DNA was eluted in 120 µl of RNAse-free water over two elution steps, and 60 µl of the eluted DNA was further concentrated using the Zymo DNA Clean and Concentrator Kit. DNA concentration was measured with a Qubit Fluorometer and set to 1 ng/µl per sample. Sequencing libraries were prepared using the Nextera XT DNA library preparation kit (Illumina) and sequenced on an Illumina NextSeq 500 platform, generating 2 × 150 bp paired-end reads.
To identify and annotate variants, sequencing reads were mapped to their corresponding reference genomes using the Burrows-Wheeler Aligner (BWA)[75]. PCR duplicates were removed using Picard Mark Duplicates (see http://broadinstitute.github.io/picard) and reads with more than 6 mismatches were discarded. Variants (SNPs and INDELs) were called with Freebayes[76] and filtered using vcffilter[77], retaining only those with a quality score above 100. Rare variants were not excluded, but potential artefacts were manually inspected using IGV[78]. Variants were annotated with SnpEf, keeping only those absent in the ancestor. Mutations appearing in more than nine lines were excluded, as these were likely present in the ancestor. […]

[2] = tested on: polymyxin B-resistant lines of K. pneumoniae (KP-SEN); experiment: Cross-resistance of polymyxin B resistant evolved lines, relative MIC; format: cell-based, Klebsiella pneumoniae
Excerpt: To further investigate potential overlaps in resistance mechanisms, we examined the extent of cross-resistance between polymyxin B and other antibiotics that target the bacterial membrane.
Fig. 7 Cross-resistance of polymyxin B resistant lines to ST and DT permeabilizer antibiotics. […] 3 independently evolved lines from each investigated species were studied, including E. coli (EC), K. pneumoniae (KP), A. baumannii (AB), and P. aeruginosa (PA). Gray color of the main heatmap indicates combinations not tested due to intrinsic resistance of ancestor strain. The additional heatmap to the right depicts genes mutated in each polymyxin B-adapted line and their involvement in specific cellular processes based on KEGG (Kyoto Encyclopedia of Genes and Genomes) and COG (Clusters of Orthologous Genes) databases. The distances between antibiotics were computed using the Euclidean distance method based on the log-transformed MIC values. The clustering was performed using the complete linkage method. […] For detailed information on antibiotic and bacterial strain abbreviations, see Supplementary Data 1. Source data are provided as a Source Data file.
(§1) A robotic liquid handling system was used to automatically prepare a 11 to 16-step serial dilution in 384-well microtiter plates (Greiner). A final concentration of 5 × 10^5 bacterial cells per mL were inoculated into each well containing 60 µL MHB medium. Bacterial cultures were incubated at 37 °C with continuous shaking (Infors shaker, 900 rpm with 3 mm throw) for 18 hours (2 replicates from each). Cell growth was monitored by measuring the optical density (OD600 values, using Biotek Synergy microplate reader). MIC was defined as the antibiotic concentration of complete growth inhibition (i.e., OD600 < 0.05). Relative MIC was calculated as follows:1 relativeMIC=MICevolved/MICancestor […]
Supplementary Figure 6. Susceptibility of Polymyxin B resistant lines to other ST and DT […]
dividing the MIC of the evolved line by that of the corresponding ancestor) of 12 polymyxin B resistant lines to ST and DT permeabilizer antibiotics used in this study. Each data point represents a distinct adaptive laboratory evolved polymyxin B resistant line. Boxplots show the median, first and third quartiles, with whiskers showing the 5th and 95th percentiles. P values were calculated using Dunn's post-hoc test with Benjamini-Hochberg correction (NS indicates p > 0.05, ** / **** indicates p < 0.01 / 0.0001, respectively). The resistance level of polymyxin B resistant lines to polymyxin B (PMB), […]
(§2) For detailed information on antibiotic and bacterial strain abbreviations, see Supplementary Table 1. Source data are provided as a Source […]
(§3) (1 picture or pasted object on this page, not shown here)

[3] = tested on: polymyxin B-resistant lines of E. coli (EC-SEN); experiment: as above; format: cell-based, Escherichia coli
Experimental: 3 independently evolved lines from each investigated species were studied, including E. coli (EC), K. pneumoniae (KP), A. baumannii (AB), and P. aeruginosa (PA). […] The distances between antibiotics were computed using the Euclidean distance method based on the log-transformed MIC values. The clustering was performed using the complete linkage method. […] For detailed information on antibiotic and bacterial strain abbreviations, see Supplementary Data 1. Source data are provided as a Source Data file.
as §1
Each data point represents a distinct
Boxplots show the median, first and third quartiles, with whiskers showing the 5th and 95th percentiles. P values were calculated using Dunn's post-hoc test with Benjamini-Hochberg correction (NS indicates p > 0.05, ** / **** indicates p < 0.01 […]
as §2, §3

[4] = tested on: T1, P. aeruginosa ATCC BAA-3107; experiment: microbe, parasite or virus in culture; design: Serial broth microdilution MIC (CLSI), OD600 below 0.05, 384-well plates, MHB medium; conditions: Pseudomonas aeruginosa, ATCCBAA3107, 18 h; ancestor strain before evolution
T1 construct: ATCC BAA-3107
Experimental: A final concentration of 5 × 10^5 bacterial cells per mL were inoculated into each well containing 60 µL MHB medium. Bacterial cultures were incubated at 37 °C with continuous shaking (Infors shaker, 900 rpm with 3 mm throw) for 18 hours (2 replicates from each). Cell growth was monitored by measuring the optical density (OD600 values, using Biotek Synergy microplate reader). MIC was defined as the antibiotic concentration of complete growth inhibition (i.e., OD600 < 0.05). Relative MIC was calculated as follows:1 relativeMIC=MICevolved/MICancestor This study focused on multiple bacterial strains, as follows. For the FoR and ALE experiments, 2 strains per species were chosen: E. coli ATCC 25922, K. pneumoniae ATCC 10031, A. baumannii ATCC 17978, and P. aeruginosa ATCC BAA-3107 as sensitive (SEN) strains, and E. coli NCTC13846, K. pneumoniae ATCC 700603, A. baumannii ATCC BAA-1605 and P. aeruginosa LESB58 as multi-drug resistant (MDR) strains. Functional metagenomic screens were performed with E. coli ATCC 25922 and K. pneumoniae ATCC 10031 strains. To determine the dose-kill properties of the different antibiotics, an E. coli strain (ATCC 25922) expressing a yellow fluorescent protein (pZS2R, YFP, CHL^R) and a red fluorescent protein (pZS2R, mCherry, CHL^R) was used.

[5] = tested on: A. baumannii ATCC 17978 (SEN) and A. baumannii ATCC BAA-1605 (MDR); design: method as in PMID 39805953; conditions: cited from earlier work
[6] = tested on: E. coli ATCC 25922 (SEN) and E. coli NCTC13846 (MDR); design: method as in PMID 39805953; conditions: cited from earlier work
[7] = tested on: P. aeruginosa ATCC BAA-3107 (SEN) and P. aeruginosa LESB58 (MDR); conditions: cited from earlier work
Excerpt: page 10: Mobile resistance genes against DT permeabilizer were rare in human-associated microbiomes and clinically relevant pathogens, while they were abundant against ST permeabilizers.

[8] = tested on: K. pneumoniae ATCC 10031 (SEN) and K. pneumoniae ATCC 700603 (MDR); design: method as in PMID 39805953; conditions: K. pneumoniae sensitive strain; cited from earlier work
[9] = KP-SEN, polymyxin B-resistant evolved line 1, MIC evolved/MIC ancestor
[10] = KP-SEN, polymyxin B-resistant evolved line 3, MIC evolved/MIC ancestor
[11] = KP-SEN, polymyxin B-resistant evolved line 7, MIC evolved/MIC ancestor
[12] = polymyxin B-resistant evolved line 1 of KP-SEN, MIC relative to ancestor
[13] = polymyxin B-resistant evolved line 3 of KP-SEN, MIC relative to ancestor
[14] = polymyxin B-resistant evolved line 7 of KP-SEN, MIC relative to ancestor
[15] = EC-SEN, polymyxin B-resistant evolved line 4, MIC evolved/MIC ancestor
[16] = EC-SEN, polymyxin B-resistant evolved line 6, MIC evolved/MIC ancestor
[17] = EC-SEN, polymyxin B-resistant evolved line 10, MIC evolved/MIC ancestor
[18] = polymyxin B-resistant evolved line 4 of EC-SEN, MIC relative to ancestor
[19] = polymyxin B-resistant evolved line 6 of EC-SEN, MIC relative to ancestor
[20] = polymyxin B-resistant evolved line 10 of EC-SEN, MIC relative to ancestor

Row | Compound | overlap in the set of mutated genes associated with ST permeabilizers [1] | Relative MIC [2, 9] | Relative MIC [2, 10] | Relative MIC [2, 11] | Relative MIC [2, 12] | Relative MIC [2, 13] | Relative MIC [2, 14] | Relative MIC [3, 15] | Relative MIC [3, 16] | Relative MIC [3, 17] | Relative MIC [3, 18] | Relative MIC [3, 19] | Relative MIC [3, 20] | MIC [4] | resistance level (relative MIC) after FoR assay ([5]; A. baumannii multidrug-resistant (MDR) strain) | resistance level (relative MIC) after FoR assay ([5]; A. baumannii sensitive strain) | resistance level (relative MIC) after FoR assay ([6]; multidrug-resistant E. coli strain) | increase in resistance level after adaptive laboratory evolution [7] | resistance level (relative MIC) after FoR assay [8] | resistance level (relative MIC) after FoR assay ([6]; E. coli sensitive strain)
1 | Tridecaptin M152-P3 | 2.5% |  |  |  |  |  |  |  |  |  |  |  |  |  |  |  |  |  |  | 
2 | CC(C)c1ccc(Cn2ccc3c4c(N)nc(NC5CC5)nc4ccc32)cc1 [SCH79797] | 0.6% | 1 | 1 | 1 | 1 | 1 | 1 | 1 | 1 | 1 | 1 | 1 | 1 |  |  |  |  |  |  | 
3 | colistin |  | 32 | 64 | 32 | 32 | 64 | 32 |  | 32 | 32 |  | 32 | 32 |  |  |  |  |  |  | 
4 | Nc1nc(-n2cc(C(=O)O)c(=O)c3cc(F)c(N4CC(O)C4)c(Cl)c32)c(F)cc1F [Delafloxacin] |  |  |  |  |  |  |  |  |  |  |  |  |  | 0.0156 µg/mL |  |  |  |  |  | 
5 | POL7306 | 8.12% | 1 | 32 | 32 | 1 | 32 | 32 | 1 | 2 | 2 | 1 | 2 | 2 |  |  |  |  |  |  | 
6 | CC[C@H](C)CCCCC(=O)N[C@@H](CCN)C(=O)N[C@H](C(=O)N[C@@H](CCN)C(=O)N[C@H]1CCNC(=O)[C@H]([C@@H](C)O)NC(=O)[C@H](CCN)NC(=O)[C@H](CCN)NC(=O)[C@H](CC(C)C)NC(=O)[C@@H](Cc2ccccc2)NC(=O)[C@H](CCN)NC1=O)[C@@H](C)O [Polymyxin B] (X2-[Dab]T[Dab][Dab][Dab][dF]L[Dab][Dab]T; lactam 4-C (inferred); N-terminus assumed) |  | 32 | 64 | 64 | 32 | 64 | 64 | 64 | 32 | 32 | 64 | 32 | 32 |  | more than 128 fold | no resistant mutants emerged | no resistant mutants emerged | 32 fold | no resistant mutants emerged | 
7 | CC(C)C[C@@H]1NC(=O)[C@@H](Cc2ccccc2)NC(=O)[C@H](CCN)NC(=O)[C@@H](NC(=O)[C@H](CN)NC(=O)[C@@H](NC(=O)C[C@H](CN)c2cccc(Cl)c2)[C@@H](C)O)CCNC(=O)[C@H]([C@@H](C)O)NC(=O)[C@H](CCN)NC(=O)[C@H](CCN)NC1=O [SPR206] (X1-T[Dap][Dab][Dab][dF]L[Dab][Dab]T; lactam 3-C (inferred); N-terminus assumed) |  | 32 | 128 | 128 | 32 | 128 | 128 | 32 | 64 | 64 | 32 | 64 | 64 |  |  |  |  | 32 fold | more than 128 fold | more than 128 fold
